Test results reported in patent publication US10201535B2 (priority 2011, dated 2019).

Assays:
[1] = tested on: 37° C. induced vessel dilation (cutaneous blood flow) in rat paws; assay: Rat Blood Flow Assay (laser Doppler flowmetry, hind foot pad); type: in vivo; conditions: 4 days of topical dosing (once per day), 0.1%, hairless CD rats
Protocol: A laser Doppler microvascular perfusion monitor (laser Doppler flowmetry technique, LDF) was used to monitor red blood cell perfusion in the microvasculature of the hind foot pad. The laser doppler flowmetry (LDF) is an OxyFlo Microvascular Perfusion Monitor, from Oxford Optronix Ltd. UK.
Briefly, 15 μL of test articles was applied topically once, or repeatedly (once daily for 4 consecutive days) to one hind foot pad of anaesthetized hairless CD rats and 15 μL of vehicle was applied to the other footpad.
At various timepoints up to 8 hrs following the last test article administration, dynamic blood flow changes were measured and recorded every 15 seconds for 4 minutes per temperature interval for 5 intervals (22° C.→37° C.→4° C.→37° C.→22° C.).
Rats were placed on a 37° C. heat pad to increase their temperature and on an ice pad to decrease their temperature to 4° C. The levels of blood flow in the two paws were compared.
The % blood flow inhibition is calculated as the % difference in the AUC of peak 1 (first 8 min heating and cooling interval) of the laser doppler recordings between the drug-treated and vehicle-treated paws. Data are the mean % inhibition values from 8-10 rats per group.

[2] = Protocol: To assure the integrity of each skin section, its permeability to tritiated water was determined before application of the test products.
[3] = tested on: LL-37-induced skin inflammation; assay: LL-37-Induced Skin Inflammation Mouse Model (ear swelling); type: in vivo; conditions: at 6 and 9 hrs after topical treatment, gel on ears of BALB/c mice
Protocol: One hour following application, the left ear was intradermally injected with LL-37 peptide and the right ear was injected with phosphate-buffered saline (PBS). Ear thickness measurements were made with a digital caliper (Mitutoyo) at various timepoints up to 8 hrs post-injection with LL-37. Ear swelling is an indicator of inflammation.
The data are the mean values from 9-10 mice per group.

[4] = tested on: UVB-induced erythema, cutaneous vessel dilation and tactile hypersensitivity in SKH1 hairless mice; assay: Ultraviolet B-Induced Mouse Sunburn Model; type: in vivo
Source text: SKH1 hairless mice, lying on their stomachs with their left sides covered, were exposed to UVB at an intensity of 120 mJ/cm^2 for 91 sec. […] At various timepoints up to 48 hrs post UVB-irradiation, the following assessments were made:
1. Vasculature area in the exposed and unexposed ears by image analysis of digital photos using ImagePro Premier (Media Cybernetics) software. Images are converted to gray-scale, expanded and thresholding, based on each ear's baseline pixel values, is applied to the images. Thresholding differentiates the desired “object” features (i.e. vasculature network) from the background (i.e. skin tissue). The “object” pixels are then quantified and reported as the vasculature area.
2. Erythema on the exposed and unexposed back using a Chromameter (Konica Minolta).
3. Tactile hypersensitivity assessment using a paint brush test. The hypersensitivity is assessed by light stroking of the flank of the mice with a small paint brush every 5 min over 35 min. The behavioral response is scored as follows: 0, no response; 1, mild squeaking with attempts to move away from the brush; 2, vigorous squeaking evoked by the brush, biting at the brush and strong efforts to escape. The scores at the eight timepoints are summed so the maximum hypersensitivity score for each mouse can be 16. The exposed (right) and unexposed (left) flanks were scored independently.

[5] = tested on: UVB-exposed skin of SKH1 hairless mice; assay: Mouse Model of UV-Induced Erythema (histology of back skin); type: in vivo; conditions: for mice with overall healing good to excellent / EPIDERMIS Hyperplasia / DERMIS Congestion / DERMIS Edema / DERMIS Infiltrates / EPIDERMIS Disorganization / EPIDERMIS Necrosis / EPIDERMIS Separation: skin 48 hours after UVB; for EPIDERMIS Hyperplasia / DERMIS Congestion / DERMIS Edema / DERMIS Infiltrates / EPIDERMIS Disorganization / EPIDERMIS Necrosis / EPIDERMIS Separation: mean grade
Protocol: The right backs of male SKH1 hairless mice were exposed to 120 mJ/cm^2 UVB radiation, while the left sides were shielded. […] An additional group with vehicle applied topically at 20 minutes post UVB exposure served as a control. Samples of skin from the backs from both left and right sides were collected 48 hours following UVB exposure and examined histologically.
Each endpoint is graded on a scale of 0-4 (0=no findings, 1=minimal, 2=mild, 3=moderate, 4=marked). Data are expressed as the mean of values from 6 mice per group.

[6] = 0.1% topical, 20 minutes following UVB exposure
[7] = scale 0-4, 0.1% topical 20 min after UVB
[8] = scale 0-4, 0.1% topical 4 hr after UVB
[9] = scale 0-4, 0.1% topical 8 hr after UVB

c1cnc2c(c1)CC[C@H](Cc1c[nH]cn1)C2 [(S)-(+)-7-(1H-Imidazol-4-ylmethyl)-5,6,7,8-tetrahydro-quinoline]
duration of statistically significant inhibition of 37° C. induced vessel dilation [1]: at least 6 hrs
penetration into and through skin [2]: does penetrate into and through ex vivo human trunk skin
distribution in skin layers (mass recovered) ([2]; 48 hour dose exposure, 0.58% (w/w) dose, FIG. 3): higher concentration in the epidermis
rate of percutaneous absorption (flux into receptor solution) ([2]; human): increased rate of flux at the 18 and 36 hr timepoints
inhibition of LL-37-induced skin inflammation (ear swelling) [3]: statistically significant inhibition
duration of statistically significant reduction of erythema to nearly baseline levels (chromameter) ([4]; topical dosing to the back 30 min following UVB exposure): at least 48 hrs
tactile hypersensitivity (paint brush test) ([4]; topical dosing to the back 30 min following UVB exposure, assessed 4 hrs following UVB irradiation, both UV-exposed and control sides): statistically significant reduction of tactile hypersensitivity
duration of statistically significant cutaneous vasoconstriction (reduction of cutaneous vasculature area) to nearly baseline levels ([4]; topical dosing to the ear 30 min following UVB exposure): at least 48 hrs
edema, mixed inflammatory cell infiltrates and vascular congestion of the underlying dermis [5, 6]: significantly reduced
outcome of healing of UVB-exposed back skin [5, 6]: significantly improved the outcome of healing
mice with overall healing good to excellent ([5]; 0.1% topical, treated at 20 minutes post UVB exposure): 75%
mice with overall healing good to excellent ([5]; 0.1% topical, treated at 4 hours post UVB exposure): 50%
mice with overall healing good to excellent ([5]; 0.1% topical, treated at 8 hours post UVB exposure): 60%
mice with epidermal failure (moderate to marked separation and necrosis) ([5]; 0.1% topical, treated up to 8 hours following UVB exposure (all treated mice)): 8%
EPIDERMIS Hyperplasia ([5]; scale 0-4 (0=no findings, 4=marked), 0.1% topical 20 min after UVB): 3.0
DERMIS Congestion [5, 7]: 1.0
DERMIS Edema [5, 7]: 0.5
DERMIS Infiltrates [5, 7]: 0.8
EPIDERMIS Disorganization [5, 7]: 2.0
EPIDERMIS Necrosis [5, 7]: 0.5
EPIDERMIS Separation [5, 7]: 0.3
DERMIS Congestion [5, 8]: 1.8
DERMIS Edema [5, 8]: 2.0
DERMIS Infiltrates [5, 8]: 2.0
EPIDERMIS Disorganization [5, 8]: 3.0
EPIDERMIS Hyperplasia [5, 8]: 2.3
EPIDERMIS Necrosis [5, 8]: 1.3
EPIDERMIS Separation [5, 8]: 1.3
DERMIS Congestion [5, 9]: 1.0
DERMIS Edema [5, 9]: 1.5
DERMIS Infiltrates [5, 9]: 0.8
EPIDERMIS Disorganization [5, 9]: 2.0
EPIDERMIS Hyperplasia [5, 9]: 3.3
EPIDERMIS Necrosis [5, 9]: 1.0
EPIDERMIS Separation [5, 9]: 1.3
